Paper PMC7736581, “Activation of the IRE1 RNase through remodeling of the kinase front pocket by ATP-competitive ligands” (Nature Communications, 2020)

Assays:
[1] = target: T1, CK2_alpha1 (Homo sapiens, UniProt P68400); test: biochemical; design: Invitrogen kinase panel: Z'Lyte activity (ATP at Km) or LanthaScreen competitive ATP-site binding, percent inhibition
T1 construct: gene CSNK2A1

[2] = target: T2, DCAMKL2 (Homo sapiens, UniProt Q8N568); test: biochemical; design: Invitrogen kinase panel: Z'Lyte activity (ATP at Km) or LanthaScreen competitive ATP-site binding, percent inhibition
T2 construct: gene DCLK2

[3] = target: DYRK3 (Homo sapiens, UniProt O43781); test: biochemical; design: Invitrogen kinase panel: Z'Lyte activity (ATP at Km) or LanthaScreen competitive ATP-site binding, percent inhibition
Sequence of DYRK3 (O43781 whole entry): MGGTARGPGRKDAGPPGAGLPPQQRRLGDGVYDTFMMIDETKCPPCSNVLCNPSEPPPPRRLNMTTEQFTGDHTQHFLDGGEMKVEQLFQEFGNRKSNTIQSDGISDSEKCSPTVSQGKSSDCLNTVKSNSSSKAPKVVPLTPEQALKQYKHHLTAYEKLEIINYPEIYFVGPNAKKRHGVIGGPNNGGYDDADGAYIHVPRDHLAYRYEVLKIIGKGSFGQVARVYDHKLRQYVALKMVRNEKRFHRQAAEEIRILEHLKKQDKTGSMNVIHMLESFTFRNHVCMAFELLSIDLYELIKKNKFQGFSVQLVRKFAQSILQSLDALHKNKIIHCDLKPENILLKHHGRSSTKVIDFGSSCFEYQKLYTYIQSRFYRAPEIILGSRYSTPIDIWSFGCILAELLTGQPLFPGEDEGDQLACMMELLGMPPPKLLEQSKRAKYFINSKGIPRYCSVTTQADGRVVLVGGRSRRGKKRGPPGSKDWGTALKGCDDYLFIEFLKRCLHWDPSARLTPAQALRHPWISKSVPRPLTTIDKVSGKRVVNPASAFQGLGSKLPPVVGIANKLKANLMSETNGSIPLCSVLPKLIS

[4] = target: FGFR3 (Homo sapiens, UniProt P22607); test: biochemical; design: Invitrogen kinase panel: Z'Lyte activity (ATP at Km) or LanthaScreen competitive ATP-site binding, percent inhibition
[5] = target: Flt1 (Homo sapiens, UniProt P17948); test: biochemical; design: Invitrogen kinase panel: Z'Lyte activity (ATP at Km) or LanthaScreen competitive ATP-site binding, percent inhibition
[6] = target: T3, Hyl (Homo sapiens, UniProt P42679); test: biochemical; design: Invitrogen kinase panel: Z'Lyte activity (ATP at Km) or LanthaScreen competitive ATP-site binding, percent inhibition
T3 construct: gene MATK
T3 sequence (P42679 whole entry): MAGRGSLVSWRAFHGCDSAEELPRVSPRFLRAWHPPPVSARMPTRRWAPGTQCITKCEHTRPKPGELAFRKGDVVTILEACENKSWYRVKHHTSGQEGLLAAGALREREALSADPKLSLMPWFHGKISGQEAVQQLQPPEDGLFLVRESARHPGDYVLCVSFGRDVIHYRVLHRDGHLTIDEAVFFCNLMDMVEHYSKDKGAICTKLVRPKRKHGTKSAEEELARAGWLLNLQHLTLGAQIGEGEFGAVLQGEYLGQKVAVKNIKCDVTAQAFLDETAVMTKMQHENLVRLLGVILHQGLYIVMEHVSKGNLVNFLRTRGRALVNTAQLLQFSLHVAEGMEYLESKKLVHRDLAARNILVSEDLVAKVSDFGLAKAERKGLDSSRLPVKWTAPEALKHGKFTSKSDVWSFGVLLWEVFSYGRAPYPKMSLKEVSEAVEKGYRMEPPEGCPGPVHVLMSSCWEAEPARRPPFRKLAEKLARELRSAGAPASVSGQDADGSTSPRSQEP

[7] = target: NEK6 (Homo sapiens, UniProt Q9HC98); test: biochemical; design: Invitrogen kinase panel: Z'Lyte activity (ATP at Km) or LanthaScreen competitive ATP-site binding, percent inhibition
Sequence of NEK6 (Q9HC98 whole entry): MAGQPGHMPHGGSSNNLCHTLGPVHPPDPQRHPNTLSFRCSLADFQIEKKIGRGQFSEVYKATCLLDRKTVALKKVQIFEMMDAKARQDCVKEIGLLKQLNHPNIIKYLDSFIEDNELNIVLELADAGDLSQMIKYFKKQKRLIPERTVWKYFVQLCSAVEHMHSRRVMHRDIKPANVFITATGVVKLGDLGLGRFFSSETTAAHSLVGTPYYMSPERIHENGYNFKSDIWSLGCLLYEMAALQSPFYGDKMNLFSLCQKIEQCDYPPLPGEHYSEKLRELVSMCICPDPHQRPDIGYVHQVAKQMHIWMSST

[8] = target: T4, Rse (Homo sapiens, UniProt Q06418); test: biochemical; design: Invitrogen kinase panel: Z'Lyte activity (ATP at Km) or LanthaScreen competitive ATP-site binding, percent inhibition
T4 construct: gene TYRO3
T4 sequence (Q06418 whole entry): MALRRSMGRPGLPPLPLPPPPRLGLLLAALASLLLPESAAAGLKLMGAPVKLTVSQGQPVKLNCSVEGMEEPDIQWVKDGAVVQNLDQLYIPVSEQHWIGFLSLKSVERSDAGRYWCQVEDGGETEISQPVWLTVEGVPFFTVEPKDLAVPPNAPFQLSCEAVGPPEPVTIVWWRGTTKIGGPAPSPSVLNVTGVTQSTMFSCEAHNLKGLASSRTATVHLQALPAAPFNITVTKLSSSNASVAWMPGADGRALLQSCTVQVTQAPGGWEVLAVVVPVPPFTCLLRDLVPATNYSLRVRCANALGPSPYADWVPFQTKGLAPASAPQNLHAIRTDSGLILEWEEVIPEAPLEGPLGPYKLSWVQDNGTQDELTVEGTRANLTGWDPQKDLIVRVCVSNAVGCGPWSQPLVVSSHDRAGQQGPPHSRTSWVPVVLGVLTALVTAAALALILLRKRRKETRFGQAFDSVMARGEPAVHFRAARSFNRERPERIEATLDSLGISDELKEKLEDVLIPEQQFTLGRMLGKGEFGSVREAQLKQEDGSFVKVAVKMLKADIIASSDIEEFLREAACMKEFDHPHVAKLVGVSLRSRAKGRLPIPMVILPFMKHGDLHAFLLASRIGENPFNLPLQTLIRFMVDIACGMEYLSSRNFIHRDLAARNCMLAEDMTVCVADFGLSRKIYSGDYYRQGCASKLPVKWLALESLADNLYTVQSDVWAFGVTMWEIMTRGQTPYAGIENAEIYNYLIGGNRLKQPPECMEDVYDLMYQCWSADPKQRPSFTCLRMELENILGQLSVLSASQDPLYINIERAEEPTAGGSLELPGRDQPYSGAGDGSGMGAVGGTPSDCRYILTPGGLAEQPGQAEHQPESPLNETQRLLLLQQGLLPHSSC

[9] = target: T5, ZIPK (Homo sapiens, UniProt O43293); test: biochemical; design: Invitrogen kinase panel: Z'Lyte activity (ATP at Km) or LanthaScreen competitive ATP-site binding, percent inhibition
T5 construct: gene DAPK3
T5 sequence (O43293 whole entry): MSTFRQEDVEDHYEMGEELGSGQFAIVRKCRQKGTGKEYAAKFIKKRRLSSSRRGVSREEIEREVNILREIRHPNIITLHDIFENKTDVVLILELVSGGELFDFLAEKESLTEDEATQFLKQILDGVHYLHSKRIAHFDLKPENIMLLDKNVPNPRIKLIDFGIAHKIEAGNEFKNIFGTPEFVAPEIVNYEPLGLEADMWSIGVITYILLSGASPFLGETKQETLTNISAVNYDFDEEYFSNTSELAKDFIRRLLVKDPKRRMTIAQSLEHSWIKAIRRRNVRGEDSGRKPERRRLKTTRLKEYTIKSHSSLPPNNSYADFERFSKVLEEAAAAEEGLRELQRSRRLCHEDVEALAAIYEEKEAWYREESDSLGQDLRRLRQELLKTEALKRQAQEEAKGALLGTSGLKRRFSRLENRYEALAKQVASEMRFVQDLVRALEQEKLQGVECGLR

[10] = target: LTK (Homo sapiens, UniProt P29376); test: biochemical; design: Invitrogen kinase panel: Z'Lyte activity (ATP at Km) or LanthaScreen competitive ATP-site binding, percent inhibition
Sequence of LTK (P29376 whole entry): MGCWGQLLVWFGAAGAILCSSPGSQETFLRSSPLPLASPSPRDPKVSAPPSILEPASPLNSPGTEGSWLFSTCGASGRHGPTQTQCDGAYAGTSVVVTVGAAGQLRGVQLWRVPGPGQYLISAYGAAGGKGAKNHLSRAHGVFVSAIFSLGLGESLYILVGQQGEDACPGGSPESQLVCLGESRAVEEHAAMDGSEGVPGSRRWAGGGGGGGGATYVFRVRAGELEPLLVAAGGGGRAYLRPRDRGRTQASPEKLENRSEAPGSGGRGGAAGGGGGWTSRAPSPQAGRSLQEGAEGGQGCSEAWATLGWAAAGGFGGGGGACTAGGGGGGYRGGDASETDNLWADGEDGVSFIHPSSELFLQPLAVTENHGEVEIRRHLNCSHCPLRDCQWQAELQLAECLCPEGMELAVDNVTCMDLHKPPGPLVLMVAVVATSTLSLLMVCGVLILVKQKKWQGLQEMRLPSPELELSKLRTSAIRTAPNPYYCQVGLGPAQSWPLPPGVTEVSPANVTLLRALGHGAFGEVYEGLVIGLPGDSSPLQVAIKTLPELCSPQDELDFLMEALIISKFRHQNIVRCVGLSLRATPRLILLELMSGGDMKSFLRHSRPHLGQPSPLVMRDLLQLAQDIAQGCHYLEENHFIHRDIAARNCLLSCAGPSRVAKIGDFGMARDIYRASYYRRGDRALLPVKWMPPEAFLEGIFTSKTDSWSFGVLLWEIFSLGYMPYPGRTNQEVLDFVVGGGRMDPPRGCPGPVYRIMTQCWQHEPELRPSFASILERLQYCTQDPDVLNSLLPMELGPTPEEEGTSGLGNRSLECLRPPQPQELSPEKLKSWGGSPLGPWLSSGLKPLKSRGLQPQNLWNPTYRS
Source text: (§1) We set out to identify allosteric activators of IRE1 RNase by screening internal compound libraries for binding to the kinase, using a published ATP-competitive TR-FRET assay. We then tested kinase binders to assess RNase modulation in an IRE1-specific kinetic RNA cleavage assay that uses the cytoplasmic construct IRE1-LKR (Q470-L977) (Supplementary Fig. 1a). […] Next, we tested these compounds in KMS-11 multiple myeloma cells, known to express functional IRE1 and strongly depend on the IRE1 pathway due to hyper-production of immunoglobulins in the ER[31]. We measured mRNA levels of XBP1s and the well-established RIDD target DGAT2[22] (Fig. 1c and Supplementary Fig. 1c, respectively) using a branched DNA (bDNA) assay. […] Importantly, neither G-9807 nor G-1749 inhibit PERK (Supplementary Table 1).

[11] = target: STK33 (Homo sapiens, UniProt Q9BYT3); test: biochemical; design: Invitrogen kinase panel: Z'Lyte activity (ATP at Km) or LanthaScreen competitive ATP-site binding, percent inhibition
Sequence of STK33 (Q9BYT3 whole entry): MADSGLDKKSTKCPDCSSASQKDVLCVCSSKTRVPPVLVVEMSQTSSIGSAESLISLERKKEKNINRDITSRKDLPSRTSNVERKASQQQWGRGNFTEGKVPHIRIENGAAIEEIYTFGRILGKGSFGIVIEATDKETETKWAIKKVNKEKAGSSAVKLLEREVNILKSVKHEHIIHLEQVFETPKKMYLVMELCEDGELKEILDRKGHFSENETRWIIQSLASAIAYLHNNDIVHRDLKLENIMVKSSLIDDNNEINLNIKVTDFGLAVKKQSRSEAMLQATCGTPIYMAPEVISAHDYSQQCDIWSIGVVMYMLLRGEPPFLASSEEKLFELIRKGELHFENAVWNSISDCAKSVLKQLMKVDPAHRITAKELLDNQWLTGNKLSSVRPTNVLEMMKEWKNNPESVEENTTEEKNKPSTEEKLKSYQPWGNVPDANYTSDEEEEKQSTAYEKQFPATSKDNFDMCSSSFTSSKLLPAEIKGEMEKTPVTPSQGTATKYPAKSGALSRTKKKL
Source text: as §1

[12] = target: T6, Inositol-Requiring Enzyme 1 (IRE1) (Homo sapiens, UniProt O75460); test: co-crystal structure ([…] Å); also TR-FRET kinase binding, HX-MS, RNase activation; design: gene ERN1; IRE1 KR (G547-L977), unphosphorylated (IRE1-0P)
T6 sequence (O75460 547-977): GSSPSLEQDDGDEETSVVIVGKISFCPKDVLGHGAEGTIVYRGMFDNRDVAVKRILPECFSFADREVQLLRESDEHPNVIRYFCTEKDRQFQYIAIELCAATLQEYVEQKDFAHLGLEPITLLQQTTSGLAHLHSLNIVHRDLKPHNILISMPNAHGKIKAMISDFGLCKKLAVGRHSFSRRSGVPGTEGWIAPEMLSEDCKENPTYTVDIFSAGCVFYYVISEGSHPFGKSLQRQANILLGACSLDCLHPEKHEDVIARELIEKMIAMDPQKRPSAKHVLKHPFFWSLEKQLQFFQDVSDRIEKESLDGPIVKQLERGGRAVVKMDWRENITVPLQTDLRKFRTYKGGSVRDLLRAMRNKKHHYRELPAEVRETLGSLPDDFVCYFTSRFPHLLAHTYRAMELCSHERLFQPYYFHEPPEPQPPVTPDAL

[13] = target: T7, Cot (Homo sapiens, UniProt P41279); test: biochemical; design: Invitrogen kinase panel: Z'Lyte activity (ATP at Km) or LanthaScreen competitive ATP-site binding, percent inhibition
T7 construct: gene MAP3K8

[14] = target: T8, FAK2 (Homo sapiens, UniProt Q14289); test: biochemical; design: Invitrogen kinase panel: Z'Lyte activity (ATP at Km) or LanthaScreen competitive ATP-site binding, percent inhibition
T8 construct: gene PTK2B

[15] = target: Fyn (Homo sapiens, UniProt P06241); test: biochemical; design: Invitrogen kinase panel: Z'Lyte activity (ATP at Km) or LanthaScreen competitive ATP-site binding, percent inhibition
[16] = target: T9, GCK (Homo sapiens, UniProt Q12851); test: biochemical; design: Invitrogen kinase panel: Z'Lyte activity (ATP at Km) or LanthaScreen competitive ATP-site binding, percent inhibition
T9 construct: gene MAP4K2

[17] = target: T10, PDGFR_beta (Homo sapiens, UniProt P09619); test: biochemical; design: Invitrogen kinase panel: Z'Lyte activity (ATP at Km) or LanthaScreen competitive ATP-site binding, percent inhibition
T10 construct: gene PDGFRB

[18] = target: T11, PKC_iota (Homo sapiens, UniProt P41743); test: biochemical; design: Invitrogen kinase panel: Z'Lyte activity (ATP at Km) or LanthaScreen competitive ATP-site binding, percent inhibition
T11 construct: gene PRKCI

[19] = target: T6, Inositol-Requiring Enzyme 1 (IRE1); test: co-crystal structure ([…] Å); also TR-FRET kinase binding, HX-MS, SV-AUC, RNase activation; design: gene ERN1; unphosphorylated IRE1 cytoplasmic kinase-RNase (IRE1-0P)

T1 sequence (P68400 whole entry): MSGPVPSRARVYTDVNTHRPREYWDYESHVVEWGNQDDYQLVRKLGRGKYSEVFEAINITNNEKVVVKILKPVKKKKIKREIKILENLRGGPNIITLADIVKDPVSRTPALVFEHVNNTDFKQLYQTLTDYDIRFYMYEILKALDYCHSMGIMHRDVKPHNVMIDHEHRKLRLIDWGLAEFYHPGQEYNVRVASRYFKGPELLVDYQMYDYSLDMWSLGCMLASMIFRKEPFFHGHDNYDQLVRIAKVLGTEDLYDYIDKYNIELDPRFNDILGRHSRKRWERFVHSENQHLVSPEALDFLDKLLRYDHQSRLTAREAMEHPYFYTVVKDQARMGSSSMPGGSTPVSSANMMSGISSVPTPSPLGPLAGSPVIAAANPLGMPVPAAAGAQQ

inhibition at 1 µM [13]	inhibition at 1 µM [14]	inhibition at 1 µM [15]	inhibition at 1 µM [16]	inhibition at 1 µM [17]	inhibition at 1 µM [18]	IC50 [19]	SMILES	inhibition at 1 µM [1]	inhibition at 1 µM [2]	inhibition at 1 µM [3]	inhibition at 1 µM [4]	inhibition at 1 µM [5]	inhibition at 1 µM [6]	inhibition at 1 µM [7]	inhibition at 1 µM [8]	inhibition at 1 µM [9]	inhibition at 1 µM [10]	inhibition at 1 µM [11]	IC50 [12]
–	–	–	–	–	–	–	CCOC(=O)Nc1cccc2c(Oc3ncccc3-c3ccnc(N[C@H]4CCCNC4)n3)c(C)ccc12 [G-1749]	0.5%	3%	3.5%	-6%	-1%	6.5%	2.5%	8.5%	1%	1%	-4%	low-nanomolar
–	–	–	–	–	–	–	CC#CC(=O)Nc1cccc2c(Oc3ncccc3-c3ccnc(N[C@H]4CCCNC4)n3)c(C)ccc12 [G-7658]	0%	2%	1%	-5%	-1.5%	6.5%	17.5%	6.5%	0%	-4.5%	-3.5%	–
94%	79.6%	76.2%	95.7%	80.4%	46.6%	low-nanomolar	O=c1cc(-c2n[nH]c3ncc(-c4c(F)cccc4F)cc23)nc(N2CCC(O)CC2)[nH]1 [G-9807]	–	–	–	–	–	–	–	–	–	–	–	–
